# Assay results from patent publication US20260207735A1, “Pharmaceutical compositions, vaccines and their uses in the prevention or treatment of a persistent infection or of cancer” (Universitätsmedizin der Johannes Gutenberg-Universität Mainz, priority 2018, published 2026).
# Legend:
# CD8+ T cell response = conditions: following transcutaneous immunization with imiquimod in mice; cited from earlier work
# influenza = conditions: combined with a vaccine, compared to the vaccine alone; cited from earlier work
# [1] = system: CD11c positive Dendritic cells (DCs); assay: TLR7 mediated activation of splenic dendritic cells in vitro (CD40, CD80, CD86 by flow cytometry); type: cell-based, C57BL/6 mice; conditions: R-848 10 μg/ml, 24 h incubation; NAC 5 mM
# Procedure: CD11c positive Dendritic cells (DCs) were purified from spleens from C57BL/6 mice) as described in Weber M et al. (2014) and activated as indicated with the TLR7/8 agonist R-848 (10 μg/ml), anthralin (dithranol), N-acetyl cysteine (NAC 5 mM) or left untreated in Iscoves's medium+5% FCS (Michael Weber et al., “Donor and Host B Cell-Derived IL-10 Contributes to Suppression of Graft-Versus-Host Disease.,” European Journal of Immunology 44, no. 6 (June 2014): 1857-65, doi:10.1002/eji.201344081).
# After 24 h incubation, the cells were harvested, labeled with specific mAbs and analyzed by flow cytometry for the activation markers CD40, CD80 and CD86 gating on live (propidium iodide negative, CD11c/MHC class II positive DCs).
# Spleens of C57BL6/J wildtype mice were harvested, picked and digested for 45 min with type 2 collagenase (50 U/ml from Worcester, Pappenheim, Germany) and stopped by adding 2 mM EDTA (from Sigma-Aldrich, Taufkirchen, Germany). After a hypotonic lysis step DCs were isolated using CD11c MicroBeads UltraPure (Miltenyi Biotec, Germany) following the manufacturer's instruction. 2×10^5 CD11c^+ DCs/well were plated in 96 well plates and cultivated for either 24 or 48 h in the presence of TLR7 ligand R-848 (10 μg/ml) and/or different concentrations of anthralin (solved in DMSO). […] Following cytokines were quantified using CBA technology: IL-1b; IL-6; IL-10; IL-12; IL-23; TNF-α.
# [2] = system: peptide-specific CD8+ T cells; assay: Imiquimod based transcutaneous immunization (TCI), primary T cell response (tetramer flow cytometry, in vivo cytolytic activity, IFN-γ ELISpot); set-up: species or system C57BL/6 mice; conditions: for T cell activation (primary T cell response): 0.0625% in Vaseline on ear skin 24 h before TCI (IMI-Sol + OVA peptides), read-out day 7
# [3] = system: peptide-specific CD8+ T cells; assay: Imiquimod based TCI, memory immune response (secondary T cell response), Day 35; type: in vivo, C57BL/6 mice; conditions: dithranol 0.0625% in Vaseline 24 h before TCI; read-out Day 35
# Procedure: C57BL/6 mice (n=3-8 per group) were immunized by TCI, performed as described in FIG. 1 (A) The frequency of peptide-specific CD8^+ T cells was assessed on Day 35 via flow cytometry. (B) The in vivo cytolytic activity was analyzed on Day 35, 20 h after transfer of peptide-loaded splenocytes. (C) IFN-γ production of splenocytes on Day 35 post the indicated treatments. Splenocytes were re-stimulated with the indicated peptides for 24 h before harvest and analysis by ELISpot assay. * Significance by One Way ANOVA with Bonferroni Posttest analysis; p<0.05 (*). […]
# For detecting in vivo cytolytic activity, splenocytes of syngenic wildtype mice were labeled with different amounts of 5,6-carboxyfluorescein diacetate succinimidyl ester (CFSE; Invitrogen, Carlsbad, USA) resulting in a CFSE^low and a CFSE^high population. […] Specific lysis was evaluated as following: Specific lysis (%)=100×(1−([…]). All analyses were performed with a LSRII Flow Cytometer and FACSDiva Software (Becton Dickinson, Franklin Lakes, USA). […]
# [4] = α-Tocopherol 600 U/kg i.p. 1 h before anthralin and/or TCI, day 7
smiles,measurement,setting,value
Oc1cc2ccccc2c2ccccc12 [9-phenanthrol],generation of a CD8+ T cell response,CD8+ T cell response,enhances the generation of a CD8+ T cell response
"CC(C)Cn1cnc2c(N)nc3ccccc3c21 [Imiquimod, imiquimod]",survival of mice,influenza,improve survival of mice
"CC(=O)N[C@@H](CS)C(=O)O [NAC, N-acetyl cysteine]","TLR7 mediated activation of DCs (CD40, CD80, CD86)",[1],activation phenotype is restored
O=C1c2cccc(O)c2C(=O)c2c(O)cccc21 [danthron],T cell activation (primary T cell response),[2],no impact on T cell activation
"O=C1c2c(O)cccc2Cc2cccc(O)c21 [dithranol, 1,8-dihydroxy-9-anthrone]",T cell activation (primary T cell response),[2],synergistic effect on T cell activation on CD8 positive as well as CD4 positive T cells
same,site dependence of synergistic T cell activation,"[2]; TCI on both ears or only one ear, day 7",required at the same site (ear) to mediate synergistic T cell activation
same,"TLR7 mediated activation of DCs (CD40, CD80, CD86)",[1],suppresses the TLR7 mediated activation of DCs in vitro
same,T cell activation including memory T cell formation (secondary T cell response),[3],synergistic effect on T cell activation on CD8 positive as well as CD4 positive T cells including memory T cell formation
Cc1c(C)c2c(c(C)c1O)CC[C@@](C)(CCC[C@H](C)CCC[C@H](C)CCCC(C)C)O2 [α-Tocopherol],CTL frequency (peptide-specific CD8+ T cells),[2]; [4],without affecting CTL frequency
same,in vivo cytolytic activity induced by dithranol (anthralin) TCI,[2]; [4],antagonizes the enhanced cytolytic activity induced by dithranol (anthralin) TCI
